Measurements published in patent US7868028B2 (priority 2002, dated 2011).
Values joined by “and” are separate entries in the source; they are usually repeats but may differ in a detail not shown here. Equal values may be shown once. Read-outs that look alike come from different tables or passages of the source.

Key:
[1] = test system: voltage-gated sodium channel (site 1, [3H]Saxitoxin binding); design: species or system rat; for % inhibition: test concentration or dose not given here
Male Sprague-Dawley rats = details: rat, in vivo; note: test concentration or dose not given here

Compound: Cl.N=c1n(CCN2CCOCC2)c2ccccc2n1CC(O)c1ccco1 (racemic) [Compound 25]
- % inhibition [1]: 16%

Compound: Br.N=c1n(CCN(Cc2ccccc2)Cc2ccccc2)c2ccccc2n1CC(O)COc1ccccc1 (racemic) [Compound 76]
- % inhibition [1]: — (key: —: A dash (-) indicates less than 10% inhibition was observed in this test)
- IC50 [1]: 100 µM

Compound: Br.COc1ccc(Cn2c(=N)n(CC(O)COc3ccccc3)c3ccccc32)cc1 (racemic) [Compound 78]
- % inhibition [1]: 17%
- IC50 [1]: 67 µM
- Average % MPE 5 minutes (Male Sprague-Dawley rats): 11 % MPE
- Average % MPE Day 4 (Male Sprague-Dawley rats): −4 % MPE

Compound: CCCCn1c(=N)n(CC(O)c2ccccc2)c2ccccc21.Cl (centres unmarked) [Compound 18]
- % inhibition [1]: 11%

Compound: Cl.N=c1n(Cc2ccccc2)c2ccccc2n1CC(O)c1ccco1 (centres unmarked) [Compound 67]
- % inhibition [1]: — (key: —: A dash (-) indicates less than 10% inhibition was observed in this test)

Compound: Cl.N=c1n(Cc2ccccc2)c2ccccc2n1CC(O)c1ccc(Br)cc1 (centres unmarked) [Compound 63]
- % inhibition [1]: — (key: —: A dash (-) indicates less than 10% inhibition was observed in this test)

Compound: Cl.N=c1n(CCN2CCCCC2)c2ccccc2n1CC(O)COc1ccccc1 (racemic) [Compound 22]
- % inhibition [1]: 14%
- IC50 [1]: 210 µM
- Average % MPE 5 minutes (Male Sprague-Dawley rats): 100 % MPE

Compound: Cl.N=c1n(Cc2ccccc2)c2ccccc2n1CC(O)c1ccccc1 (racemic) [Compound 5]
- % inhibition [1]: 38%
- IC50 [1]: 41 µM
- Average % MPE 5 minutes (Male Sprague-Dawley rats): 100 % MPE
- Average % MPE Day 4 (Male Sprague-Dawley rats): 7 % MPE

Compound: Br.N=c1n(Cc2ccccc2)c2ccccc2n1CC(O)COc1ccccc1 (centres unmarked) [Compound 3, 1-benzyl-2-imino-3-(2-hydroxy-3-phenoxypropyl)benzimidazole hydrobromide]
- % inhibition [1]: 52%
- IC50 [1]: 21 µM
- Average % MPE 5 minutes (Male Sprague-Dawley rats; hydrobromide): 76 % MPE and 100 % MPE

Compound: COc1ccc(C(O)Cn2c(=N)n(C)c3ccccc32)cc1.Cl (racemic) [Compound 27]
- % inhibition [1]: 17%

Compound: Cl.N=c1n(Cc2ccc(Cl)cc2)c2ccccc2n1CC(O)c1ccco1 (racemic) [Compound 68]
- % inhibition [1]: — (key: —: A dash (-) indicates less than 10% inhibition was observed in this test)

Compound: Cl.N=c1n(CCN2CCCCC2)c2ccccc2n1CC(O)c1cccs1 (centres unmarked) [Compound 38]
- % inhibition [1]: 22%

Compound: Cl.N=c1n(CCN2CCCCC2)c2ccccc2n1CC(O)c1ccccc1 (centres unmarked) [Compound 30]
- % inhibition [1]: 18%

Compound: Cl.N=c1n(CCN2CCCCC2)c2ccccc2n1CC(O)c1cccc2ccccc12 (centres unmarked) [Compound 32]
- % inhibition [1]: 20%

Compound: CC(O)Cn1c(=N)n(Cc2ccccc2)c2ccccc21.Cl (centres unmarked) [Compound 24]
- % inhibition [1]: 16%

Compound: Cl.Cn1c(=N)n(CC(O)c2ccc(Cl)cc2)c2ccccc21 (centres unmarked) [Compound 54]
- % inhibition [1]: — (key: —: A dash (-) indicates less than 10% inhibition was observed in this test)

Compound: CC(O)Cn1c(=N)n(C)c2ccccc21.Cl (centres unmarked) [Compound 66]
- % inhibition [1]: — (key: —: A dash (-) indicates less than 10% inhibition was observed in this test)

Compound: Cl.Cn1c(=N)n(CC(O)C23CC4CC(CC(C4)C2)C3)c2ccccc21 (centres unmarked) [Compound 23]
- % inhibition [1]: 15%

Compound: Br.N=c1n(Cc2cccc3ccccc23)c2ccccc2n1CC(O)COc1ccccc1 (racemic) [Compound 73]
- % inhibition [1]: — (key: —: A dash (-) indicates less than 10% inhibition was observed in this test)
- IC50 [1]: 107 µM

Compound: CCN(CC)CCn1c(=N)n(CC(O)COc2ccccc2)c2ccccc21.Cl (racemic) [Compound 55]
- % inhibition [1]: — (key: —: A dash (-) indicates less than 10% inhibition was observed in this test)

Compound: Cl.Cn1c(=N)n(CC(O)c2ccc(Cl)c(Cl)c2)c2ccccc21 (centres unmarked) [Compound 13]
- % inhibition [1]: 46%
- IC50 [1]: 232 µM

Compound: Br.CCCCCCCCCCCn1c(=N)n(CC(O)COc2ccccc2)c2ccccc21 (racemic) [Compound 74]
- % inhibition [1]: 33%
- IC50 [1]: 117 µM

Compound: CC(C)(C)C(O)Cn1c(=N)n(Cc2ccc(Cl)cc2)c2ccccc21.Cl (racemic) [Compound 59]
- % inhibition [1]: — (key: —: A dash (-) indicates less than 10% inhibition was observed in this test)

Compound: C=CCn1c(=N)n(CC(O)C(C)(C)C)c2ccccc21.Cl (racemic) [Compound 36]
- % inhibition [1]: 22%

Compound: CCCn1c(=N)n(CC(O)c2ccccc2)c2ccccc21.Cl (centres unmarked) [Compound 43]
- % inhibition [1]: 26%

Compound: Cc1ccc(Cn2c(=N)n(CC(O)COc3ccc(Cl)cc3)c3ccccc32)cc1.Cl (centres unmarked) [Compound 52]
- % inhibition [1]: 37%

Compound: CC(C)(C)C(O)Cn1c(=N)n(Cc2ccccc2)c2ccccc21.Cl (centres unmarked) [Compound 26]
- % inhibition [1]: 17%

Compound: COc1ccc(C(O)Cn2c(=N)n(Cc3ccccc3)c3ccccc32)cc1.Cl (racemic) [Compound 47]
- % inhibition [1]: 32%

Compound: CCOc1ccc(C(O)Cn2c(=N)n(CCN3CCCCC3)c3ccccc32)cc1.Cl (racemic) [Compound 37]
- % inhibition [1]: 22%

Compound: Cl.N=c1n(CCN2CCOCC2)c2ccccc2n1CC(O)COc1ccccc1 (racemic) [Compound 33]
- % inhibition [1]: 20%

Compound: COc1ccc(C(O)Cn2c(=N)n(CCN3CCCCC3)c3ccccc32)cc1.Cl (centres unmarked) [Compound 45]
- % inhibition [1]: 28%

Compound: CN(C)CCn1c(=N)n(CC(O)c2ccc(Cl)c(Cl)c2)c2ccccc21.Cl (racemic) [Compound 51]
- % inhibition [1]: 36%

Compound: Cl.Cn1c(=N)n(CC(O)c2cccc3ccccc23)c2ccccc21 (centres unmarked) [Compound 58]
- % inhibition [1]: — (key: —: A dash (-) indicates less than 10% inhibition was observed in this test)

Compound: C=CCn1c(=N)n(CC(O)c2ccc(OCC)cc2)c2ccccc21.Cl (centres unmarked) [Compound 49]
- % inhibition [1]: 32%

Compound: Cl.Cn1c(=N)n(CC(O)c2cccs2)c2ccccc21 (centres unmarked) [Compound 34]
- % inhibition [1]: 20%

Compound: Br.N=c1n(Cc2ccccc2)c2ccccc2n1CC(O)Cc1ccccc1 (racemic) [Compound 77]
- % inhibition [1]: 27%
- IC50 [1]: 81 µM

Compound: C=CCn1c(=N)n(CC(O)c2ccc(C)cc2)c2ccccc21.Cl (racemic) [Compound 50]
- % inhibition [1]: 33%

Compound: CCCn1c(=N)n(CC(O)c2ccc(Cl)cc2)c2ccccc21.Cl (racemic) [Compound 48]
- % inhibition [1]: 32%

Compound: C=CCn1c(=N)n(CC(O)c2ccc(Cl)cc2)c2ccccc21.Cl (racemic) [Compound 64]
- % inhibition [1]: — (key: —: A dash (-) indicates less than 10% inhibition was observed in this test)

Compound: Cl.N=c1n(Cc2ccc(Cl)cc2)c2ccccc2n1CC(O)COc1ccc(Cl)cc1 (centres unmarked) [Compound 15]
- % inhibition [1]: 11%

Compound: CCn1c(=N)n(CC(O)COc2ccc(Cl)cc2)c2ccccc21.Cl (racemic) [Compound 21]
- % inhibition [1]: 13%

Compound: CCN(CC)CCn1c(=N)n(CC(O)COc2ccc(Cl)cc2)c2ccccc21.Cl (racemic) [Compound 56]
- % inhibition [1]: — (key: —: A dash (-) indicates less than 10% inhibition was observed in this test)

Compound: CCn1c(=N)n(CC(O)c2cccs2)c2ccccc21.Cl (centres unmarked) [Compound 17]
- % inhibition [1]: 11%

Compound: C=CCn1c(=N)n(CC(O)COc2ccccc2)c2ccccc21.Cl (centres unmarked) [Compound 41]
- % inhibition [1]: 25%

Compound: C=CCn1c(=N)n(CC(O)COc2ccc(Cl)cc2)c2ccccc21.Cl (racemic) [Compound 46]
- % inhibition [1]: 29%

Compound: CCCCn1c(=N)n(CC(O)c2ccc(Br)cc2)c2ccccc21.Cl (racemic) [Compound 62]
- % inhibition [1]: — (key: —: A dash (-) indicates less than 10% inhibition was observed in this test)

Compound: CCN(CC)CCn1c(=N)n(CC(O)c2ccc(C)cc2)c2ccccc21.Cl (centres unmarked) [Compound 28]
- % inhibition [1]: 17%

Compound: Cl.N=c1n(CCN2CCCCC2)c2ccccc2n1CC(O)COc1ccc(Cl)cc1 (racemic) [Compound 40]
- % inhibition [1]: 24%

Compound: CCCn1c(=N)n(CC(O)COc2ccccc2)c2ccccc21.Cl (centres unmarked) [Compound 20]
- % inhibition [1]: 12%

Compound: Cl.N=c1n(CCN2CCOCC2)c2ccccc2n1CC(O)c1cccs1 (centres unmarked) [Compound 16]
- % inhibition [1]: 17%

Compound: CCN(CC)CCn1c(=N)n(CC(O)c2ccc(OC)c(OC)c2)c2ccccc21.Cl (racemic) [Compound 31]
- % inhibition [1]: 19%

Compound: CC(C)(C)c1ccc(Cn2c(=N)n(CC(O)COc3ccccc3)c3ccccc32)cc1.Cl (centres unmarked) [Compound 12]
- % inhibition [1]: 59%
- IC50 [1]: 34 µM

Compound: CCCCn1c(=N)n(CC(O)c2ccc(Cl)cc2)c2ccccc21.Cl (centres unmarked) [Compound 53]
- % inhibition [1]: — (key: —: A dash (-) indicates less than 10% inhibition was observed in this test)

Compound: Cl.Cn1c(=N)n(CC(O)COc2ccccc2)c2ccccc21 (racemic) [Compound 44]
- % inhibition [1]: 27%

Compound: CCCn1c(=N)n(CC(O)c2ccc(C)cc2)c2ccccc21.Cl (centres unmarked) [Compound 60]
- % inhibition [1]: — (key: —: A dash (-) indicates less than 10% inhibition was observed in this test)

Compound: C=CCn1c(=N)n(CC(O)c2ccc(Br)cc2)c2ccccc21.Cl (racemic) [Compound 39]
- % inhibition [1]: 24%

Compound: CCCn1c(=N)n(CC(O)COc2ccc(Cl)cc2)c2ccccc21.Cl (centres unmarked) [Compound 29]
- % inhibition [1]: 18%

Compound: Br.CCCCCCCCn1c(=N)n(CC(O)COc2ccccc2)c2ccccc21 (centres unmarked) [Compound 72]
- % inhibition [1]: 20%
- IC50 [1]: 66 µM

Compound: Cl.Cn1c(=N)n(CC(O)c2ccccc2)c2ccccc21 (centres unmarked) [Compound 65]
- % inhibition [1]: — (key: —: A dash (-) indicates less than 10% inhibition was observed in this test)

Compound: CCCn1c(=N)n(CC(C)O)c2ccccc21.Cl (centres unmarked) [Compound 61]
- % inhibition [1]: — (key: —: A dash (-) indicates less than 10% inhibition was observed in this test)

Compound: CCN(CC)CCn1c(=N)n(CC(O)c2ccc(Cl)c(Cl)c2)c2ccccc21.Cl (centres unmarked) [Compound 42]
- % inhibition [1]: 25%

Compound: Cl.N=c1n(CCN2CCOCC2)c2ccccc2n1CC(O)COc1ccc(Cl)cc1 (racemic) [Compound 35]
- % inhibition [1]: 20%

Compound: Cl.N=c1n(Cc2ccc(Cl)cc2)c2ccccc2n1CC(O)COc1ccccc1 (centres unmarked) [Compound 14]
- % inhibition [1]: 16%

Compound: CCn1c(=N)n(CC(O)COc2ccccc2)c2ccccc21.Cl (centres unmarked) [Compound 19]
- % inhibition [1]: 11%

Compound: Cl.Cn1c(=N)n(CC(O)COc2ccc(Cl)cc2)c2ccccc21 (racemic) [Compound 57]
- % inhibition [1]: — (key: —: A dash (-) indicates less than 10% inhibition was observed in this test)

Compound: CC(C)(C)C(O)Cn1c(=N)n(CCN2CCCCC2)c2ccccc21.Cl (racemic) [Compound 69]
- % inhibition [1]: 18%
